Tested on: SARS-CoV-2 A2.5 variant
Assay: Pre- and post-exposure assay, A2.5 variant in Vero E6 cells
Assay type: cell-based

CCN(CC)CCCC(C)Nc1ccnc2cc(Cl)ccc12 (stereo not shown) [Chloroquine diphosphate (CQ), Chloroquine diphosphate] was tested, and the “antiviral effect, treatment 1 hour post-infection, A2.5” value was “dose-dependent antiviral effect” and the “effect on viral replication, treatment 1 hour pre-infection, A2.5” value was “did not influence the viral replication”.

With COc1cc(NC(C)CCCN)c2ncccc2c1 (stereo not shown) [Primaquine Phosphate (PQ), Primaquine Phosphate] the “antiviral effect, treatment 1 hour post-infection, A2.5” value was “dose-dependent antiviral effect” and the “effect on viral replication, treatment 1 hour pre-infection, A2.5” value was “did not influence the viral replication”.

— PMC12175177 (Frontiers in Pharmacology, 2025)
